Data from patent US20240199623A1 (ILDONG PHARMACEUTICAL CO., LTD., priority 2020, published 2024).

Target: human wild type-CFTR (Homo sapiens, UniProt P13569)
Test: Cell-based YFP assay
Design: expressed in transfected cells; host or cells: CHO-K1 (Chinese hamster ovary)
Conditions: CHO-K1 cells expressing human wild type-CFTR and YFP-H148Q/I152L; forskolin 20 μM = 100% activity; read-out: Cell-based YFP Assay (EC50) Concentration Range
Procedure: Forskolin (Tocris cat. #1099), Dimethyl sulfoxide (Sigma cat. #D4540), FLUO star Omega microplate reader (BMG Labtech, Ortenberg, Germany), MARS Data Analysis Software (BMG Labtech), GraphPad Prism 5 (GraphPad Software, Inc.) Chinese hamster ovary (CHO-K1) cells expressing human wild type-CFTR and halide sensor YFP-H148Q/I152L were constructed and grown in Dulbecco's modified Eagle's medium (DMEM) supplemented with 10% FBS, 2 mM glutamine, 100 units/ml penicillin and 100 μg/ml streptomycin. Chinese hamster ovary (CHO-K1) cells expressing human wild type-CFTR and halide sensor YFP-H148Q/I152L were seeded in 96-well microplate with 2×10^4 cells/well and incubated in 37° C., 48 hours. Then, each well was washed 3 times with PBS and 100 μL PBS was added in each well. […] YFP fluorescence signal affected by I^− ion influx through CFTR channel was measured in 37° C., FLUO star Omega microplate reader according to the following steps: • i) basal 2 seconds; • ii) 140 mM I^− solution 100 μL addition to each well; • iii) YFP fluorescence signal measurement start after 6 seconds; and • iv) following 14 seconds signal detection in every 0.4 seconds periods. […] Experiments were performed in triplicates and the data was averaged. EC50 values were calculated with MARS Data Analysis Software (BMG Labtech) and GraphPad Prism 5.

human wild type-CFTR, sequence (P13569 whole entry): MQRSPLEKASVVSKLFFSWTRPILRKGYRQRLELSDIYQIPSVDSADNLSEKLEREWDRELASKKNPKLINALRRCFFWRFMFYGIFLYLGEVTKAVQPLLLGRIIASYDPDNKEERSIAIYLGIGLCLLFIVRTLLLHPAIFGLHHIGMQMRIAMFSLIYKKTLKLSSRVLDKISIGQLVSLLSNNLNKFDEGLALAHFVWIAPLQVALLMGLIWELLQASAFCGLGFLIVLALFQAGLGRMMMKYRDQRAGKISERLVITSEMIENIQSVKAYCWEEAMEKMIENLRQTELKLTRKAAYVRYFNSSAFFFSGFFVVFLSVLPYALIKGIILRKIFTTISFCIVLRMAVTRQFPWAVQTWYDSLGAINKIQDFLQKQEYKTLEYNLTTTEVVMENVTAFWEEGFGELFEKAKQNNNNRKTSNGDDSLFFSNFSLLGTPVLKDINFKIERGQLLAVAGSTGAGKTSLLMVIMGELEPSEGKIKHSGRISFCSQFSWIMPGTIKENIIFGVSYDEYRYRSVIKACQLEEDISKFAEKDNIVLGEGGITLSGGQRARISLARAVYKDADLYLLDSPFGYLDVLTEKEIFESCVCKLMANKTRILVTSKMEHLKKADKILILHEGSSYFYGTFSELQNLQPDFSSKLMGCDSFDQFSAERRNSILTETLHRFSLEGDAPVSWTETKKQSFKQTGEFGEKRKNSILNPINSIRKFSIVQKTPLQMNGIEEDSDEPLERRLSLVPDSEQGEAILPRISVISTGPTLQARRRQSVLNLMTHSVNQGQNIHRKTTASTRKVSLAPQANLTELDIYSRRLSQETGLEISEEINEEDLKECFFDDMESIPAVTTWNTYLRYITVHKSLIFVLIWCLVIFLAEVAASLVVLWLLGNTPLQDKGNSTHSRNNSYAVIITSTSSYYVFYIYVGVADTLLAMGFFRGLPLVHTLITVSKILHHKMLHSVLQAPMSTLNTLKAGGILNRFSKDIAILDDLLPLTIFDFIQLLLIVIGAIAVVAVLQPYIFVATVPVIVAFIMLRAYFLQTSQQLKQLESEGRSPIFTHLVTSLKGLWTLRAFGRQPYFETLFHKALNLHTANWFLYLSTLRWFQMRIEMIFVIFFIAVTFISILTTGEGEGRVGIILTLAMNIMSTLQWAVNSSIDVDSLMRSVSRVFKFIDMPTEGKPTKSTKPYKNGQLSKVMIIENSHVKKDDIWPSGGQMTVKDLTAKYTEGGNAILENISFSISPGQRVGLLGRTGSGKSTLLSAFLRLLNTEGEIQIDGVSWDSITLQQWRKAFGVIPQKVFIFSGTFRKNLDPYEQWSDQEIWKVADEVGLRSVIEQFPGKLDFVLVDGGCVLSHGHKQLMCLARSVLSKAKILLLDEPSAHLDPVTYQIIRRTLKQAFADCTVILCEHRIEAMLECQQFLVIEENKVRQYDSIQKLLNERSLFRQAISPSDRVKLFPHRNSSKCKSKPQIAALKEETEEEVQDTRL

EC50, 200 to 2000 nM:
COc1ccc(-c2ccnc3cc(C(=O)N4CCN(Cc5ccccc5)CC4)nn23)cc1OC [Compound 154, (4-benzylpiperazin-1-yl) (7-(3,4-dimethoxyphenyl)pyrazolo [1,5-a]pyrimidin-2-yl)methanone]
COc1ccc(-c2ccnc3cc(C(=O)N4CCN(c5ccccc5)CC4)nn23)cc1OC [Compound 152, (7-(3,4-dimethoxyphenyl)pyrazolo[1,5-a]pyrimidin-2-yl)(4-phenylpiperazin-1-yl)methanone]
COc1ccc(-c2ccnc3cc(C(=O)N4CCN[C@@H](C5CC5)C4)nn23)cc1OC [Compound 374, (S)-(3-cyclopropylpiperazin-1-yl)(7-(3,4-dimethoxyphenyl)pyrazolo [1,5-a]pyrimidin-2-yl)methanone]
COc1ccc(-c2ccnc3cc(C(=O)N4CCN(Cc5ccccc5)C(C)(C)C4)nn23)cc1OC [Compound 207, (4-benzyl-3,3-dimethylpiperazin-1-yl)(7-(3,4-dimethoxyphenyl)pyrazolo [1,5-a]pyrimidin-2-yl)methanone]
COc1ccc(-c2ccnc3cc(C(=O)N4C[C@H](C)NC[C@@H]4C)nn23)cc1OC [Compound 362, (7-(3,4-dimethoxyphenyl)pyrazolo[1,5-a]pyrimidin-2-yl) ((2S,5S)-2,5-dimethylpiperazin-1-yl)methanone]
COc1ccc(-c2ccnc3cc(C(=O)Nc4ccc(C(=O)N[C@@H](C)C(=O)O)cc4)nn23)cc1OC [Compound 44, (4-(7-(3,4-dimethoxyphenyl)pyrazolo[1,5-a]pyrimidine-2-carboxamido)benzoyl)-L-alanine]
COc1ccc(-c2ccnc3cc(C(=O)N4CCN(C(=O)c5ccccc5)C(C)(C)C4)nn23)cc1OC [Compound 211, (4-benzoyl-3,3-dimethylpiperazin-1-yl) (7-(3,4-dimethoxyphenyl)pyrazolo [1,5-a]pyrimidin-2-yl)methanone]
COc1ccc(-c2ccnc3cc(C(=O)NC45CC(C(=O)OCCCN6CCOCC6)(C4)C5)nn23)cc1OC [Compound 199, 3-morpholinopropyl 3-(7-(3,4-dimethoxyphenyl)pyrazolo [1,5-a]pyrimidine-2-carboxamido)bicyclo[1.1.1] pentane-1-carboxylate]
COC(=O)c1ccc(NC(=O)Nc2cc3nccc(-c4ccc(OC)c(OC)c4)n3n2)cc1 [Compound 93, methyl 4-(3-(7-(3,4-dimethoxyphenyl)pyrazolo[1,5-a]pyrimidin-2-yl)ureido)benzoate]
CCOc1ccc(NC(=O)c2cc3nccc(-c4ccc(OC)c(F)c4)n3n2)cc1 [Compound 308, N-(4-ethoxyphenyl)-7-(3-fluoro-4-methoxyphenyl)pyrazolo [1,5-a]pyrimidine-2-carboxamide]
COc1ccc(-c2ccnc3cc(C(=O)N4CCN(C(=O)c5ccc(Cl)cc5)[C@@H](C)C4)nn23)cc1OC [Compound 262, (S)-(4-(4-chlorobenzoyl)-3-methylpiperazin-1-yl) (7-(3,4-dimethoxyphenyl)pyrazolo[1,5-a]pyrimidin-2-yl)methanone]

EC50, ≥ 2000 nM:
CCOc1ccc(NC(=O)c2cc3nccc(-c4cccc(C)c4)n3n2)cc1 [Compound 301, N-(4-ethoxyphenyl)-7-(m-tolyl)pyrazolo[1,5-a] pyrimidine-2-carboxamide]
COc1ccc(-c2ccnc3cc(C(=O)N4CCN(C)CC4)nn23)cc1OC [Compound 101, (7-(3,4-dimethoxyphenyl)pyrazolo[1,5-a]pyrimidin-2-yl)(4-methylpiperazin-1-yl)methanone]
COc1ccc(-c2ccnc3cc(C(=O)NC4(C(=O)O)CC4)nn23)cc1OC [Compound 29, 1-(7-(3,4-dimethoxyphenyl)pyrazolo[1,5-a]pyrimidine-2-carboxamido) cyclopropane-1-carboxylic acid]
COc1ccc(-c2ccnc3cc(C(=O)Nc4ccc(C(=O)OCCCN5CCCC5)cc4)nn23)cc1OC [Compound 226, 3-(pyrrolidin-1-yl)propyl 4-(7-(3,4-dimethoxyphenyl)pyrazolo [1,5-a]pyrimidine-2-carboxamido)benzoate]
COc1ccc(-c2ccnc3cc(C(=O)N(C)c4ccc(C(=O)N5CCOCC5)cc4)nn23)cc1OC [Compound 249, 7-(3,4-dimethoxyphenyl)-N-methyl-N-(4-(morpholine-4-carbonyl)phenyl)pyrazolo[1,5-a]pyrimidine-2-carboxamide]
COc1ccc(-c2ccnc3cc(C(=O)NC4CCN(C(=O)COC(C)=O)CC4)nn23)cc1OC [Compound 84, 2-(4-(7-(3,4-dimethoxyphenyl)pyrazolo[1,5-a]pyrimidine-2-carboxamido)piperidin-1-yl)-2-oxoethyl acetate]
COc1ccc(-c2ccnc3cc(C(=O)N[C@H]4CC[C@@H](C(=O)N5CCN(C)CC5)CC4)nn23)cc1OC [Compound 240, 7-(3,4-dimethoxyphenyl)-N-((1S,4S)-4-(4-methylpiperazine-1-carbonyl)cyclohexyl) pyrazolo[1,5-a]pyrimidine-2-carboxamide]
COc1ccc(-c2ccnc3cc(C(=O)N[C@H]4CC[C@H](C(=O)N5CCC(N6CCOCC6)CC5)CC4)nn23)cc1OC [Compound 341, 7-(3,4-dimethoxyphenyl)-N-((1R,4R)-4-(4-morpholinopiperidine-1-carbonyl)cyclohexyl) pyrazolo[1,5-a] pyrimidine-2-carboxamide]
COc1ccc(-c2ccnc3cc(C(=O)N4CCCc5cc(C(=O)N6CCN(C)CC6)ccc54)nn23)cc1OC [Compound 235, (7-(3,4-dimethoxyphenyl)pyrazolo[1,5-a]pyrimidin-2-yl)(6-(4-methylpiperazine-1-carbonyl)-3,4-dihydroquinolin-1(2H)-yl)methanone]
COC(=O)c1ccc(NC(=O)c2cc3nccc(-c4cccc(OC)c4)n3n2)cc1 [Compound 25, methyl 4-(7-(3-methoxyphenyl)pyrazolo [1,5-a]pyrimidine-2-carboxamido) benzoate]
COC(=O)c1ccc(NC(=O)c2cc3nccc(-c4ccc5c(c4)OCCO5)n3n2)cc1 [Compound 70, methyl 4-(7-(2,3-dihydrobenzo[b][1,4]dioxin-6-yl)pyrazolo[1,5-a]pyrimidine-2-carboxamido)benzoate]
COc1ccc(-c2ccnc3cc(C(=O)Nc4ccc(C(=O)N[C@@H](CO)C(=O)O)cc4)nn23)cc1OC [Compound 45, (4-(7-(3,4-dimethoxyphenyl)pyrazolo[1,5-a]pyrimidine-2-carboxamido)benzoyl)-L-serine]
COc1ccc(-c2ccnc3cc(C(=O)NC45CC(C(=O)N6CCNCC6)(C4)C5)nn23)cc1OC [Compound 98, 7-(3,4-dimethoxyphenyl)-N-(3-(piperazine-1-carbonyl)bicyclo [1.1.1]pentan-1-yl)pyrazolo[1,5-a] pyrimidine-2-carboxamide]
COc1ccc(-c2ccnc3cc(C(=O)Nc4ccc(C(=O)O)c(C)c4)nn23)cc1OC [Compound 213, 4-(7-(3,4-dimethoxyphenyl)pyrazolo[1,5-a]pyrimidine-2-carboxamido)-2-methylbenzoic acid]
CCOc1ccc(NC(=O)c2cc3nccc(-c4ccc(F)c(F)c4)n3n2)cc1 [Compound 293]

EC50, < 200 nM:
COc1ccc(-c2ccnc3cc(C(=O)Nc4ccc(N5CCOCC5)cc4F)nn23)cc1OC [Compound 311, 7-(3,4-dimethoxyphenyl)-N-(2-fluoro-4-morpholinophenyl) pyrazolo[1,5-a]pyrimidine-2-carboxamide]
COc1ccc(-c2ccnc3cc(C(=O)N4CCN(C(=O)c5ccoc5)[C@@H](C)C4)nn23)cc1OC [Compound 370, (S)-(7-(3,4-dimethoxyphenyl)pyrazolo[1,5-a]pyrimidin-2-yl)(4-(furan-3-carbonyl)-3-methylpiperazin-1-yl)methanone]
COc1ccc(-c2ccnc3cc(C(=O)NC(=Cc4ccccc4)C(=O)N4CCN(C)CC4)nn23)cc1OC [Compound 134, 7-(3,4-dimethoxyphenyl)-N-(3-(4-methylpiperazin-1-yl)-3-oxo-1-phenylprop-1-en-2-yl)pyrazolo[1,5-a] pyrimidine-2-carboxamide]
COc1ccc(-c2ccnc3cc(C(=O)Nc4ccc(O)cn4)nn23)cc1OC [Compound 327, 7-(3,4-dimethoxyphenyl)-N-(5-hydroxypyridin-2-yl)pyrazolo[1,5-a] pyrimidine-2-carboxamide]
COc1ccc(NC(=O)c2cc3nccc(-c4ccc(OC)c(OC)c4)n3n2)c(F)c1 [Compound 325, 7-(3,4-dimethoxyphenyl)-N-(2-fluoro-4-methoxyphenyl)pyrazolo [1,5-a]pyrimidine-2-carboxamide]
COC(=O)C[C@H](NC(=O)c1ccc(NC(=O)c2cc3nccc(-c4ccc(OC)c(OC)c4)n3n2)cc1)C(=O)OC [Compound 60, dimethyl (4-(7-(3,4-dimethoxyphenyl)pyrazolo [1,5-a]pyrimidine-2-carboxamido)benzoyl)-L-aspartate]
